Measurements: patent US20130309736A1, “COMPOSITIONS AND METHODS FOR MALATE AND FUMARATE PRODUCTION” (CARGILL, INCORPORATED, priority 2011, published 2013)

Experiments:
Type in all cases: cell-based
[1] = tested on: Issatchenkia orientalis CD1822; test: Growth rate in YPD shake flasks (first secondary screen)
Method: (§1) For the first secondary screen, growth rates were measured in YPD media containing 0 g/L malate at pH 3.0 or 200 g/L malate at pH 2.85. Shake flasks were inoculated with biomass harvested from seed flasks grown overnight to an OD600 of 6 to 10. 250 mL baffled growth rate flasks (50 mL working volume) were inoculated to an OD600 of 0.1 and grown at 250 rpm and 30° C. Samples were taken throughout the time course of the assay and analyzed for biomass growth via OD600. The resulting OD600 data was plotted and growth rates were established.
(§2) The same procedures were utilized to screen, rate, and score the original 91 wild-type yeast strains from the primary screen with media containing 0, 30, 45, and 60 g/L lactic acid at pH 3.0 (˜80% free acid). Due to difficulties in properly scoring some very weak growth that occasionally occurred at 60 g/L, 20 strains were re-tested in the primary screen. Of these 20 strains, eight were eliminated due to very slow growth relative to the rest of the test group. The remaining 12 strains were advanced into secondary screening. The secondary screen for lactic acid was the same as that described above for malate, except for changes in concentrations and pH values. Growth rates were measured at 0 g/L lactic acid, pH 3.0 and 50 g/L lactic acid, pH 2.85, and glucose consumption rates were measured in the presence of 50 g/L lactic acid, pH 2.85. Normalized values and weighted and summed scores were calculated for each strain as described above for malate.

[2] = tested on: Saccharomyces bayanus ATCC 90739; test: as above
Method: as §1, §2

[3] = tested on: Candida milleri ATCC 60592; test: as above
Method: as §1, §2

[4] = tested on: Candida sorbosivorans ATCC 38619; test: as above; details: Candida sorosivorans, scale 0 to 1
Method: as §1, §2

[5] = tested on: Kodamaea ohmeri ATCC 20282; test: as above
Method: as §1, §2

[6] = tested on: Candida lambica ATCC 38617; test: as above
Method: as §1, §2

Candida geochares [7] = test: as above
Method: as §1, §2

[8] = tested on: Saccharomyces bulderi ATCC MYA-404; test: as above
Method: as §1, §2

[9] = tested on: Issatchenkia orientalis ATCC PTA-6658; test: as above
Method: as §1, §2

[10] = tested on: Saccharomyces bulderi ATCC MYA-402; test: as above
Method: as §1, §2

[11] = tested on: Candida zemplinina PYCC 04-501; test: as above
Method: as §1, §2

Saccharomyces javensis [12] = test: as above
Method: as §1, §2

[13] = tested on: Issatchenkia orientalis ATCC 24210; test: as above
Method: as §1, §2

[14] = tested on: Issatchenkia orientalis CD1822; test: Glucose consumption rate in YPD shake flasks (second secondary screen); details: 50 g/L lactic acid, pH 2.85, scale 0 to 1
Method: (§3) For the second secondary screen, glucose consumption was measured in YPD media containing 0 g/L malate at pH 3.0 or 200 g/L malate at pH 2.85. Shake flasks were inoculated with biomass harvested from seed flasks grown overnight to an OD600 of 6 to 10. 250 mL baffled glycolytic assay flasks (50 mL working volume) were inoculated to an OD600 of 0.1 and grown at 250 RPM and 30° C. Samples were taken throughout the time course of the assay and analyzed for glucose consumption using a 2700 Biochemistry Analyzer (Yellow Springs Instruments, YSI). The resulting data was plotted and glucose consumption rates were established.
as §2

[15] = tested on: Saccharomyces bayanus ATCC 90739; test: as above; details: 50 g/L lactic acid, pH 2.85, scale 0 to 1
Method: as §3, §2

[16] = tested on: Candida milleri ATCC 60592; test: as above; details: 50 g/L lactic acid, pH 2.85, scale 0 to 1
Method: as §3, §2

[17] = tested on: Candida sorbosivorans ATCC 38619; test: as above; details: Candida sorosivorans; 50 g/L lactic acid, pH 2.85; scale 0 to 1
Method: as §3, §2

[18] = tested on: Kodamaea ohmeri ATCC 20282; test: as above; details: 50 g/L lactic acid, pH 2.85, scale 0 to 1
Method: as §3, §2

[19] = tested on: Candida lambica ATCC 38617; test: as above; details: 50 g/L lactic acid, pH 2.85, scale 0 to 1
Method: as §3, §2

Candida geochares [20] = test: as above; details: 50 g/L lactic acid, pH 2.85, scale 0 to 1
Method: as §3, §2

[21] = tested on: Saccharomyces bulderi ATCC MYA-404; test: as above; details: 50 g/L lactic acid, pH 2.85, scale 0 to 1
Method: as §3, §2

[22] = tested on: Issatchenkia orientalis ATCC PTA-6658; test: as above; details: 50 g/L lactic acid, pH 2.85, scale 0 to 1
Method: as §3, §2

[23] = tested on: Saccharomyces bulderi ATCC MYA-402; test: as above; details: 50 g/L lactic acid, pH 2.85, scale 0 to 1
Method: as §3, §2

[24] = tested on: Candida zemplinina PYCC 04-501; test: as above; details: 50 g/L lactic acid, pH 2.85, scale 0 to 1
Method: as §3, §2

Saccharomyces javensis [25] = test: as above; details: 50 g/L lactic acid, pH 2.85, scale 0 to 1
Method: as §3, §2

[26] = tested on: Issatchenkia orientalis ATCC 24210; test: as above; details: 50 g/L lactic acid, pH 2.85, scale 0 to 1
Method: as §3, §2

CC(O)C(=O)O (stereo not drawn) [lactic acid]
Normalized grade: Growth rate slope ([1]; lactic acid, scale 0 to 1): 0.86 | Normalized grade: Growth rate 50 g/L lactic acid ([1]; pH 2.85, scale 0 to 1): 1.00 | Normalized grade: Growth rate slope ([2]; lactic acid, scale 0 to 1): 0.91 | Normalized grade: Growth rate 50 g/L lactic acid ([2]; pH 2.85, scale 0 to 1): 0.08 | Normalized grade: Growth rate slope ([3]; lactic acid, scale 0 to 1): 0.64 | Normalized grade: Growth rate 50 g/L lactic acid ([3]; pH 2.85, scale 0 to 1): 0 | Normalized grade: Growth rate slope ([4]; lactic acid): 0.95 | Normalized grade: Growth rate 50 g/L lactic acid ([4]; pH 2.85): 0.28 | Normalized grade: Growth rate slope ([5]; lactic acid, scale 0 to 1): 0 | Normalized grade: Growth rate 50 g/L lactic acid ([5]; pH 2.85, scale 0 to 1): 0.42 | Normalized grade: Growth rate slope ([6]; lactic acid, scale 0 to 1): 1 | Normalized grade: Growth rate 50 g/L lactic acid ([6]; pH 2.85, scale 0 to 1): 0.92 | Normalized grade: Growth rate slope (Candida geochares [7]; lactic acid, scale 0 to 1): 0.27 | Normalized grade: Growth rate 50 g/L lactic acid (Candida geochares [7]; pH 2.85, scale 0 to 1): 0.17 | Normalized grade: Growth rate slope ([8]; lactic acid, scale 0 to 1): 0.45 | Normalized grade: Growth rate 50 g/L lactic acid ([8]; pH 2.85, scale 0 to 1): 0.47 | Normalized grade: Growth rate slope ([9]; lactic acid, scale 0 to 1): 0.95 | Normalized grade: Growth rate 50 g/L lactic acid ([9]; pH 2.85, scale 0 to 1): 0.94 | Normalized grade: Growth rate slope ([10]; lactic acid, scale 0 to 1): 0.23 | Normalized grade: Growth rate 50 g/L lactic acid ([10]; pH 2.85, scale 0 to 1): 0.5 | Normalized grade: Growth rate slope ([11]; lactic acid, scale 0 to 1): 0.95 | Normalized grade: Growth rate 50 g/L lactic acid ([11]; pH 2.85, scale 0 to 1): 0.22 | Normalized grade: Growth rate slope (Saccharomyces javensis [12]; lactic acid, scale 0 to 1): 0.68 | Normalized grade: Growth rate 50 g/L lactic acid (Saccharomyces javensis [12]; pH 2.85, scale 0 to 1): 0.11 | Normalized grade: Growth rate slope ([13]; lactic acid, scale 0 to 1): 0.73 | Normalized grade: Growth rate 50 g/L lactic acid ([13]; pH 2.85, scale 0 to 1): 0.89 | Normalized grade: Glycolic rate [14]: 1 | Normalized grade: Glycolic rate [15]: 0.96 | Normalized grade: Glycolic rate [16]: 0.92 | Normalized grade: Glycolic rate [17]: 0.59 | Normalized grade: Glycolic rate [18]: 0.76 | Normalized grade: Glycolic rate [19]: 1 | Normalized grade: Glycolic rate (Candida geochares [20]): 0.69 | Normalized grade: Glycolic rate [21]: 1 | Normalized grade: Glycolic rate [22]: 1 | Normalized grade: Glycolic rate [23]: 1 | Normalized grade: Glycolic rate [24]: 1 | Normalized grade: Glycolic rate (Saccharomyces javensis [25]): 0 | Normalized grade: Glycolic rate [26]: 1
